From ChEMBL document CHEMBL5678811 (Invest New Drugs, 2014)
Active and inactive are the calls of the source. The rule behind the calls is not given here.

Legend:
MCF-10A = assay: Cell cycle arrest in human MCF-10A cells assessed as accumulation of cells at G1 phase by measuring increase in 2N DNA content measured after 24 hrs by propidium iodide staining based laser-scanning fluorescence cytometry; type: toxicity
MV4-11 [1] = assay: Cell cycle arrest in human MV4-11 cells assessed as accumulation of cells at G1-phase at 0.08 uM measured after 24 hrs by propidium iodide staining based flow cytometry (reference value: 61.42%); type: functional
MV4-11 [2] = assay: Cell cycle arrest in human MV4-11 cells assessed as accumulation of cells at S-phase at 0.16 uM measured after 24 hrs by propidium iodide staining based flow cytometry (reference value: 23.35%); type: functional
MV4-11 [3] = assay: Cell cycle arrest in human MV4-11 cells assessed as accumulation of cells at G1-phase at […] measured after 24 hrs by propidium iodide staining based flow cytometry (reference value: 61.42%); type: functional; conditions: dose 0.625 µM
MV4-11 [4] = assay: Cell cycle arrest in human MV4-11 cells assessed as accumulation of cells at S-phase at 1.25 uM measured after 24 hrs by propidium iodide staining based flow cytometry (reference value: 23.35%); type: functional
MV4-11 [5] = assay: Cell cycle arrest in human MV4-11 cells assessed as accumulation of cells at S-phase at 2.5 uM measured after 24 hrs by propidium iodide staining based flow cytometry (reference value: 23.35%); type: functional
MDA-MB-231 = assay: Cell cycle arrest in human MDA-MB-231 cells assessed as accumulation of cells at G1-phase at 0.16 uM measured after 24 hrs by propidium iodide staining based flow cytometry (reference value: 50.27%); type: functional
COLO 205 [6] = assay: In vivo inhibition of CDK4/CDK6 in human COLO 205 cells xenografted CD1 nu/nu mouse assessed as reduction in pHH3 expression at 12.5 to 50 mg/kg, po administered via gavage measured after 24 hrs by Western blot analysis; type: functional, organism-based; conditions: dose 12.5-50 mg/kg
[7] = Toxicity in human COLO 205 cells xenografted CD1 nu/nu mouse assessed as body weight loss at 50 mg/kg, po administered daily via gavage for 2 cycles of 3 weeks on/1 week rest; type: organism-based; conditions: in vivo
[8] = Toxicity in human COLO 205 cells xenografted CD1 nu/nu mouse assessed as change in jejunum histology at 50 mg/kg, po administered daily via gavage for 56 days and measured on day 41 to 69 by histopathological analysis; type: organism-based; conditions: in vivo, 1344 h, time 41-69 day
[9] = Toxicity in human COLO 205 cells xenografted CD1 nu/nu mouse assessed as decrease in lymphocyte count at 50 mg/kg, po administered daily via gavage for 56 days and measured on day 41 to 69 by hematological analysis; type: organism-based; conditions: in vivo, 1344 h, time 41-69 day
COLO 205 [10] = conditions: Mus musculus, CD1, dose 50.0 mg/kg, route po, time lower 1.0 hrs, time upper […], TDE = time-dependent effect
COLO 205 [11] = conditions: Mus musculus, CD1, dose 50.0 mg/kg, route po
COLO 205 [12] = conditions: Mus musculus, CD1, dose 50.0 mg/kg, route po; remark: listed apart in the source
COLO 205 [13] = conditions: Mus musculus, CD1, dose 100.0 mg/kg, route po, time 21.0 day
COLO 205 [14] = conditions: Homo sapiens, dose 50.0 mg/kg, route po, time 56.0 day
COLO 205 [15] = conditions: Homo sapiens, dose 50.0 mg/kg, route po, time 3.0 weeks
Description: Antitumor activity against human COLO 205 cells xenografted in CD1 nu/nu mouse assessed as tumor growth inhibition at 50 mg/kg, po administered daily via gavage for 2 cycles of 3 weeks on/1 week rest

COLO 205 [16] = conditions: Homo sapiens, dose 50.0 mg/kg, route po, time > 56.0 day
Calu-6 = conditions: Homo sapiens, dose 50.0 mg/kg, route po, time 21.0 day
Mus musculus [17] = species: Mus musculus; conditions: CD1, dose 50.0 mg/kg, route po, time 22.0 day
Mus musculus [18] = species: Mus musculus; conditions: CD1, dose 50.0 mg/kg, route po, time 17.0 day
[19] = biological target: Homeodomain-interacting protein kinase 2 (Homo sapiens) (UniProt Q9H2X6); conditions: Sf21, dose 200.0 nM
Description: Inhibition of recombinant human N-terminal His6-tagged HIPK2 (165 to 564 residues) expressed in baculovirus infected Sf21 insect cells at 200 nM using MBP as substrate relative to control

[20] = biological target: Cyclin-dependent kinase 5/CDK5 activator 1 (Homo sapiens) (UniProt Q00535+Q15078); conditions: Sf21, dose 200.0 nM
Description: Inhibition of recombinant human full-length N-terminal His6-tagged cdk5/N-terminal GST-tagged p25 expressed in baculovirus infected Sf21 cells at 200 nM using histone H1 as substrate relative to control

[21] = biological target: High affinity nerve growth factor receptor (Homo sapiens) (UniProt P04629); conditions: Sf21, dose 200.0 nM
Sequence of High affinity nerve growth factor receptor (Homo sapiens) (P04629 33-796 limits assumed): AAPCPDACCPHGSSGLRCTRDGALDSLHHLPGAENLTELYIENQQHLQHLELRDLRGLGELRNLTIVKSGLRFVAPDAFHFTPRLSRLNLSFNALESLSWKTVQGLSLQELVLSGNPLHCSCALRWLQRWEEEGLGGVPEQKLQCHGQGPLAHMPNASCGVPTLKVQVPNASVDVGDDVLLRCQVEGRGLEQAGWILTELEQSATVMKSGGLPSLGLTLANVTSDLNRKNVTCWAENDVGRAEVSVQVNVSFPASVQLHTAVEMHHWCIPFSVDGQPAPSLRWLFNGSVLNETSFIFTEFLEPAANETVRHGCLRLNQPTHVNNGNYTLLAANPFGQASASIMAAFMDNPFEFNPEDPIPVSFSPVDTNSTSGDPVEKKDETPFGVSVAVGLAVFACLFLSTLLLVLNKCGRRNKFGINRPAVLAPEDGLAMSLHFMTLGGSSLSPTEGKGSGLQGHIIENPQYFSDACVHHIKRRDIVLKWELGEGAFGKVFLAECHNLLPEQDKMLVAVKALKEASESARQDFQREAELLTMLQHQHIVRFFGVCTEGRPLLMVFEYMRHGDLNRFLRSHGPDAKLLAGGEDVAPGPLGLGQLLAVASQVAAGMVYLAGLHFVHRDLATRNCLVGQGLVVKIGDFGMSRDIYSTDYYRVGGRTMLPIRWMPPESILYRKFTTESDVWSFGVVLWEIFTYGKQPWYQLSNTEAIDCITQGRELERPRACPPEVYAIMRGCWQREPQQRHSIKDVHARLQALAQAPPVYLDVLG

Sequence of Cyclin-dependent kinase 5/CDK5 activator 1 (Homo sapiens) (Q00535 whole entry): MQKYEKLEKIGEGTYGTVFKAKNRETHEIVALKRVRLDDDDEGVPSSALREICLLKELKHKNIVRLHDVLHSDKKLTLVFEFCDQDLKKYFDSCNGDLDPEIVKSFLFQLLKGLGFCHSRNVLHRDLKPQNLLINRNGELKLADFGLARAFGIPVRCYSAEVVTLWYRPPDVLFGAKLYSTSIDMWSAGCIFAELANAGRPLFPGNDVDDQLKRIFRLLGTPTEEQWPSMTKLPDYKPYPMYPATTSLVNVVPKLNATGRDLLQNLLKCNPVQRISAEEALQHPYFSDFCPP
Sequence of Cyclin-dependent kinase 5/CDK5 activator 1 (Homo sapiens) (Q15078 99-307 partner limits assumed): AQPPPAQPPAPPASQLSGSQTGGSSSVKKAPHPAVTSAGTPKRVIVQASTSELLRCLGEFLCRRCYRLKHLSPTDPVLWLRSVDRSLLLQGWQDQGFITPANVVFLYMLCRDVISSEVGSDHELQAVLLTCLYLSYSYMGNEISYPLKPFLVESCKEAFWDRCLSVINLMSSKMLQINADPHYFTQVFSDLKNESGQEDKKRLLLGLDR
Sequence of Homeodomain-interacting protein kinase 2 (Homo sapiens) (Q9H2X6 whole entry, looked up): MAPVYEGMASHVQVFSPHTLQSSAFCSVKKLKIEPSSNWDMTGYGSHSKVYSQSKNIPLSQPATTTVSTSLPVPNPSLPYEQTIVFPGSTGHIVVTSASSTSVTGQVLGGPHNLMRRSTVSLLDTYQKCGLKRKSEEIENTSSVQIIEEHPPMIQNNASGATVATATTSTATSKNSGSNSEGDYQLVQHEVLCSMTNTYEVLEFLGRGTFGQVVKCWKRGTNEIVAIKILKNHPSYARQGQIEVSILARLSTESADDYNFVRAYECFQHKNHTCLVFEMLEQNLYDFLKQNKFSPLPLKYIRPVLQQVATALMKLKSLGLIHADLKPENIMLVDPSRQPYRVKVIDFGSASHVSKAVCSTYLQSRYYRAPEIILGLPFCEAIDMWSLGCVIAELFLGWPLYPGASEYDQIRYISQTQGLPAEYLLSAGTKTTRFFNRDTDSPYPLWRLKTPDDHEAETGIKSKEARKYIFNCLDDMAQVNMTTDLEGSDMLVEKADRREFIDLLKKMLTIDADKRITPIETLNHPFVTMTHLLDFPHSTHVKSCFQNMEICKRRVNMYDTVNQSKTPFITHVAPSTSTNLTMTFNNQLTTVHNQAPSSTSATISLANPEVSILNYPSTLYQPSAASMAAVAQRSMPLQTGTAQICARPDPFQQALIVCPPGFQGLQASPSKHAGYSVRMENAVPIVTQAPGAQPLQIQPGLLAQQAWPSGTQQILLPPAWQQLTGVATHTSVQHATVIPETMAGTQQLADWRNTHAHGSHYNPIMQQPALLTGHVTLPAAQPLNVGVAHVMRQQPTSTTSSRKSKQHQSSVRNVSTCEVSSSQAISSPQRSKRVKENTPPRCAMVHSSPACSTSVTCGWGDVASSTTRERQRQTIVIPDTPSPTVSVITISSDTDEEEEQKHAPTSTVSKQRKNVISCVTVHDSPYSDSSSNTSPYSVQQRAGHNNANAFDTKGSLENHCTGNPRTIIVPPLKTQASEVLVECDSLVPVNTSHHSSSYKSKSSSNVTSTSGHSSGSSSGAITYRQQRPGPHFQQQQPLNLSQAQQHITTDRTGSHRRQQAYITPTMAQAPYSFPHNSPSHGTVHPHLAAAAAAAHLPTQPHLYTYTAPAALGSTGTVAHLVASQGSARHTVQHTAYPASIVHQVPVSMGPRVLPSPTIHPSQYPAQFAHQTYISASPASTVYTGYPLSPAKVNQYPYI

CCN1CCN(Cc2ccc(Nc3ncc(F)c(-c4cc(F)c5nc(C)n(C(C)C)c5c4)n3)nc2)CC1 [ABEMACICLIB]
Activity (MCF-10A): Toxic
Activity (MV4-11 [1]): 89.44%
Activity (MV4-11 [2]): 4.59%
Activity (MV4-11 [3]): 94.63%
Activity (MV4-11 [4]): 4.18%
Activity (MV4-11 [5]): 2.99%
Activity (MDA-MB-231): 78.86%
inhibition (COLO 205 [6]): Active
Activity [7]: Non-Toxic
Activity [8]: Non-Toxic
Activity [9]: Non-Toxic
inhibition (COLO 205 [10]): Tde
inhibition (COLO 205 [11]): Active
inhibition (COLO 205 [12]): inactive
inhibition (COLO 205 [13]): Active
TGI (COLO 205 [14]): Active
TGI (COLO 205 [15]): Active
TGI (COLO 205 [16]): Active
TGI (Calu-6): Active
inhibition (Mus musculus [17]): inactive
inhibition (Mus musculus [18]): inactive
inhibition [19]: > 90%
inhibition [20]: > 90%
inhibition [21]: > 90%
